In PubChem BioAssay AID651886 (Southern Research Specialized Biocontainment Screening …, 2012) one finds log virus titer change data, which are given here for 16 compounds.

SMILES strings stand for the structures. Activity calls are given as the source filed them. No rule for the calls is given here. Where only a bound is given, the exact number is not on record here.

This experiment concerns VEEV TC-83 infected cells, virus titer reduction. As to the kind of experiment: VEEV TC 83 virus titer reduction, infected cells, secondary screen, 5 µm (AID 651886). Conditions: at 5 µM; stronger effect = lower value.
Take `CN1CCN(C)C(=Nc2ccc(C#N)cc2C(=O)Nc2ccccc2)C1`: the log virus titer change was -5.82.
For the compound `CN1CCN(Cc2nc3ccc([N+](=O)[O-])cc3c(=O)n2-c2ccccc2F)CC1`, the log virus titer change is < -7.76.
`CN1CCN(C)C(=Nc2ccc(C#N)cc2C(=O)Nc2cccc(F)c2)C1`: the log virus titer change is -1.43.
As for `CCN1CCN(Cc2nc3ccc([N+](=O)[O-])cc3c(=O)n2-c2ccccc2)CC1`, the figure is < -7.54.
As for `CCN1CCN(Cc2nc3ccc([N+](=O)[O-])cc3c(=O)n2-c2cccc(F)c2)CC1`, the figure is -7.11; as for `CN1CCN(C)C(=Nc2ccc([N+](=O)[O-])cc2C(=O)Nc2ccccc2)C1`, < -7.2.
`O=c1c2cc([N+](=O)[O-])ccc2nc(CN2CCCCC2)n1-c1ccccc1F`: the log virus titer change is -0.366 (inactive).
Turning to `COc1ccc(NC(=O)c2cc([N+](=O)[O-])ccc2N=C2CN(C)CCN2C)cc1`, the log virus titer change is < -7.2.
As for `CN1CCN(C)C(=Nc2ccc([N+](=O)[O-])cc2C(=O)Nc2ccccc2F)C1`, the figure is -3.8; as for `CCN1CCN(Cc2nc3ccc(C#N)cc3c(=O)n2-c2ccccc2)CC1`, -1.65; as for `CCN1CCN(Cc2nc3ccc(I)cc3c(=O)n2-c2ccccc2)CC1`, -0.33 (inactive).
The same measure for `O=c1c2cc([N+](=O)[O-])ccc2nc(CN2CCNCC2)n1-c1ccccc1F`: < -7.76.
The same measure for `CCN1CCN(Cc2nc3ccc([N+](=O)[O-])cc3c(=O)n2-c2ccccc2F)CC1`: -2.06; for `CCN1CCN(Cc2nc3ccc([N+](=O)[O-])cc3c(=O)n2-c2ccc(F)cc2)CC1`: -5.88.
Consider `O=c1c2cc([N+](=O)[O-])ccc2nc(CN2CCNCC2)n1-c1ccccc1`, for which the log virus titer change is < -7.76.
As for `CCN1CCN(C)CC1=Nc1ccc([N+](=O)[O-])cc1C(=O)Nc1ccccc1`, the figure is < -7.2.
